These results are taken from US10858314B2, “Urea derivative or pharmacologically acceptable salt thereof” (KYORIN PHARMACEUTICAL CO., LTD., priority 2015, dated 2020).

One test deals with T1, human FPRL1 (Homo sapiens, UniProt P25090).
T1 construct: expressed in transfected cells; host or cells: HEK293 (JCRB9068, NIBIO), transient co-transfection of pCMV-script vectors with Lipofectamine 2000
T1 sequence (P25090 1-351): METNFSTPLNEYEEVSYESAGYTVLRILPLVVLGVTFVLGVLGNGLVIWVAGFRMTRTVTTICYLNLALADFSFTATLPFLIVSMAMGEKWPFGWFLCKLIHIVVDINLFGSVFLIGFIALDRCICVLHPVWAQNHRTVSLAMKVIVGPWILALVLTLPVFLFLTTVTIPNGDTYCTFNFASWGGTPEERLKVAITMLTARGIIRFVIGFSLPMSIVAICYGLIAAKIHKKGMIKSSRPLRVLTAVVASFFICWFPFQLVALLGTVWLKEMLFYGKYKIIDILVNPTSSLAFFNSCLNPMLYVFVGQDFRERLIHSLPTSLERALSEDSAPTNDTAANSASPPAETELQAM
The test is described as follows: Measurement test of agonist activity on human FPRL1 (test of calcium mobilization in HEK293 cells transfected with human FPRL1 and Gα15). The test is classed as cell-based. Particulars: read-out: Efficacy EC50. The text has this:
Measurement Test of Agonist Activity on Human FPRL1
(1-1) Construction of Human FPRL1 Expression Vector
Human FPRL (SEQ ID NO: 3) was amplified in a PCR reaction from cDNA derived from a monocytic leukemia cell line THP-1 (TIB-202, ATCC) as a template using a forward primer shown in SEQ ID NO: 1, a reverse primer shown in SEQ ID NO: 2, and KOD-plus-ver. 2 (KOD-211, TOYOBO CO., LTD.). […] 2 (LGK-201, TOYOBO CO., LTD.). The ligation product was transformed into DH5α (DNA-901, TOYOBO CO., LTD.), cultured on a 100 μg/mL kanamycin-containing LB medium, and purified with HiSpeed Plasmid Maxi Kit (12662, QIAGEN).
(1-2) Construction of Human Gα15 Expression Vector
2. The amplified PCR product and pCMV-script vector were digested with Hind III and XhoI, and the resultant digest was ligated with Ligation high ver. 2. The ligation product was transformed into DH5α, cultured on a 100 μg/mL kanamycin-containing LB medium, and purified with HiSpeed Plasmid Maxi Kit.
(2-1) Method for Culturing and Subculturing HEK293
HEK293 (JCRB9068, NIBIO) was cultured in an incubator at 5% CO2 and 37° C. using DMEM (11885-092, GIBCO) containing 10% FBS and 1× Penicillin-Streptomycin (15140-122, GIBCO).
(2-2) Introduction of Human FPRL1 and Gα15 Expression Vectors
The cells were inoculated in a Collagen Type 1 coated 6-well plate (4810-010, IWAKI) to 5×10^5 cells/2.5 mL/well and cultured overnight. On the next day, human FPRL1 and Gα15 expression vectors were introduced using Lipofectamine 2000 transfection reagent (11668-019, Life technologies). First, the human FPRL1 and Gα15 expression vectors were diluted with Opti-MEM I Reduced Serum Medium (31985-070, GIBCO) to 2 μg/250 μL/well and Lipofectamine 2000 transfection reagent was diluted with Opti-MEM I Reduced Serum Medium to be 4 μL/250 μL/well. The vectors and reagent were softly diffused, and incubated at room temperature for 5 minutes. The vector solution was mixed with Lipofectamine 2000 transfection reagent in equal amounts. In order to form a complex of the vectors and Lipofectamine 2000 transfection reagent, the mixture was incubated at room temperature for 20 minutes, and added at 500 μL/well to the medium of inoculated cells. The treated cells were cultured for 24 hours, inoculated in Poly-D-Lysine coated 96-well plate (356640, BD Biosciences) at a cell density of 7×10^4 cells/100 μL/well, and cultured for another 24 hours. The resultant cells were used in a measurement test of calcium mobilization in the cells.
(3) Evaluation of Agonist Activity on Human FPRL1 (Test of Calcium Mobilization in Cell)
An appropriate amount of each test compound was first weighed, and dissolved to 10^−2 M by addition of dimethyl sulfoxide (DMSO). […] The plate dispensed with compound solutions was set in Flexstation (Molecular Devices, LLC.) until measurement.
Subsequently, 10 mL of assay buffer and 100 μL of probenecid solution (dissolved by addition of 1 mL of assay buffer to a 250 mM stock) were sufficiently mixed and dissolved in Fluo-4 NW dye mix. The medium of cells inoculated on the previous day was removed, the dissolved Fluo-4 NW dye mix was added in an amount of 90 μL/well, and a reaction was caused in the dark at 37° C. for 45 minutes. The cells after the reaction and chips for addition of the compound were set in Flexstation, and variation in fluorescence intensity over time after addition of the compound was measured [amount of added compound=10 μL (final concentration 10^−5 M to 10^−12 M), excitation wavelength: 485 nm, measured wavelength: 525 nm, 1.5 sec×54 read]. A value was calculated by subtracting a base value during addition of DMSO from the maximum value of relative fluorescence unit, and analyzed. All the measurement data were analyzed with Prism 4 that was a data analysis tool.

Test [1] concerns neutrophilic infiltration in mouse lung. Briefly: Effect on lipopolysaccharide-induced neutrophilic infiltration in mouse lung (BAL fluid neutrophil count). It counts as in vivo. Particulars: oral, 30 minutes before LPS aerosol, BAL fluid neutrophils after 5 hours, mouse (BALB/c, male). How it is done:
Effect of Lipopolysaccharide Induction on Neutrophilic Infiltration in Mouse Lung
A compound to be tested was orally administrated to a mouse (BALB/c, male), and after 30 minutes, the mouse was placed in a plastic container. Lipopolysaccharide (0.3 mg/mL) dissolved in physiological saline was aerosolized with an ultrasonic wave nebulizer (NE-U17, OMRON Corporation), and exposed to the mouse for 10 minutes. After 5 hours, the anesthetized mouse was sacrificed by exsanguination. A cannula was inserted in the respiratory tract and bronchoalveolar lavage (BAL) with 1 mL of […] liquid containing 0.4% sodium citrate was carried out. This operation was repeated 3 times, to obtain a BAL fluid. The BAL fluid was centrifuged at 4° C. and ×200 g for 5 minutes, and the pellet was suspended in a physiological saline containing 0.1% BSA. The number of white blood cells was counted using Turks solution with a microscope, and the total white blood cell count was calculated. The white blood cells were fixed on a glass slide using Cytospin 3 (Thermo BioAnalysis Japan K. K.). The cells were stained with Diff-Quik (SYSMEX INTERNATIONAL REAGENTS CO., LTD.), and the number thereof was counted with a microscope, and the neutrophil ratio was calculated. The neutrophil ratio was multiplied by the total white blood cell count to calculate the total neutrophil count. An effect of the compound to be tested represents a percentage (%) of suppression ratio relative to the neutrophil count in a control.

For `COc1ccc(C[C@H](NC(=O)Nc2ccc(Cl)cc2)c2nnn(CCO)n2)cc1` [Example 1-1, (−)-(S)-1-(4-Chlorophenyl)-3-{1-[2-(2-hydroxyethyl)-2H-tetrazol-5-yl]-2-(4-methoxyphenyl)ethyl}urea], at human FPRL1, the EC50 (in general, the concentration needed to bring the measured effect to its halfway point) was found to be 0.25 nM. Further, the “Suppression Ratio (%)” value in test [1] (dose 1 mg/kg) was found to be 95.7%. Take `N#Cc1ccc(C[C@H](NC(=O)Nc2ccc(Cl)cc2)c2nnn(CCO)n2)cc1` [Example 1-5, (S)-1-(4-chlorophenyl)-3-{2-(4-cyanophenyl)-1-[2-(2-hydroxyethyl)-2H-tetrazol-5-yl]ethyl}urea]: on human FPRL1, the EC50 is 0.57 nM. Still for that read-out and setting: under `O=C(Nc1ccc(Cl)cc1)N[C@@H](Cc1ccc(Cl)cc1)c1nnn(CCO)n1` [Example 1-7, (−)-(S)-1-(4-chlorophenyl)-3-{2-(4-chlorophenyl)-1-[2-(2-hydroxyethyl)-2H-tetrazol-5-yl]ethyl}urea] stands 2.7 nM; under `O=C(Nc1ccc(F)cc1)N[C@@H](Cc1ccc(Cl)cc1)c1nnn(CCO)n1` [Example 1-8, (−)-(S)-1-{2-(4-chlorophenyl)-1-[2-(2-hydroxyethyl)-2H-tetrazol-5-yl]ethyl}-3-(4-fluorophenyl)urea], 1.37 nM; under `CCc1ccc(C[C@H](NC(=O)Nc2ccc(Cl)cc2)c2nnn(CCO)n2)cc1` [Example 1-11, (S)-1-(4-chlorophenyl)-3-{2-(4-ethylphenyl)-1-[2-(2-hydroxyethyl)-2H-tetrazol-5-yl]ethyl}urea], 0.22 nM. As to `CCc1ccc(C[C@H](NC(=O)Nc2ccc(Cl)cc2)c2noc(N(C)CCO)n2)cc1` [Example 1-15, (S)-1-(4-chlorophenyl)-3-(2-(4-ethylphenyl)-1-{5-[(2-hydroxyethyl)(methyl)amino]-1,2,4-oxadiazol-3-yl}ethyl)urea], the EC50 on human FPRL1 came out at 0.63 nM. For the same compound, the “Suppression Ratio (%)” value in test [1] (dose 3 mg/kg) turned out to be 95.7%. The corresponding values for `COc1ccc(C[C@H](NC(=O)Nc2ccc(Cl)cc2)c2nnc(CCO)o2)cc1` [Example 1-20, (S)-1-(4-chlorophenyl)-3-{1-[5-(2-hydroxyethyl)-1,3,4-oxadiazol-2-yl]-2-(4-methoxyphenyl)ethyl}urea] are 0.17 nM and 94%. For `CCc1ccc(C[C@H](NC(=O)Nc2ccc(Cl)cc2)c2nnc(CCO)o2)cc1` [Example 1-73, (−)-(S)-1-(4-chlorophenyl)-3-(2-(4-ethylphenyl)-1-(5-(3-hydroxyethyl)-1,3,4-oxadiazol-2-yl)ethyl)urea], at human FPRL1, the EC50 was determined as 0.73 nM. On the same count and under the same terms, under `COc1ccc(CC(Cc2nnc(O)o2)NC(=O)Nc2ccc(Cl)cc2)cc1` (centres unmarked) [Example 1-75, 1-(4-chlorophenyl)-3-(1-(5-hydroxy-1,3,4-oxadiazol-2-yl)-3-(4-methoxyphenyl)propan-2-yl)urea] stands 1.41 nM; under `COc1ccc(CC(NC(=O)Nc2ccc(Cl)cc2)/C(N)=N/O)cc1` (centres unmarked) [Example 4], 0.34 nM; under `CNC(=O)c1ncoc1[C@H](Cc1ccc(OC)cc1)NC(=O)Nc1ccc(Cl)cc1` [Example 14-3, (S)-5-(1-(3-(4-chlorophenyl)ureido)-2-(4-methoxyphenyl)ethyl)-N-methyl-oxazole-4-carboxamide], 0.22 nM. The same measure, in the same setting: the figure for `COc1ccc(C[C@H](NC(=O)Nc2ccc(Cl)cc2)c2ocnc2C(=O)N(C)C)cc1` [Example 14-4, (S)-5-(1-(3-(4-chlorophenyl)ureido)-2-(4-methoxyphenyl)-ethyl)-N,N-dimethyloxazole-4-carboxamide] is 0.3 nM; for `CN(CCO)c1nc([C@H](Cc2ccc(Cl)cc2)NC(=O)Nc2ccc(Cl)cc2)no1` [Example 18-11, (S)-1-(4-chloro-phenyl)-3-(2-(4-chlorophenyl)-1-(5-((2-hydroxy-ethyl)(methyl)-amino)-1,2,4-oxadiazol-3-yl)ethyl)urea] it is 0.3 nM.

On to `CCc1ccc(C[C@H](NC(=O)Nc2ccc(Cl)cc2)/C(N)=N/OCCO)cc1` [Example 19-1, (+)-(S,Z)-2-[3-(4-Chlorophenyl)ureido]-3-(4-ethylphenyl)-N′-(2-hydroxyethoxy)propanimidamide], for which the EC50 at human FPRL1 is 0.56 nM. Besides, in test [1] (dose 3 mg/kg), the “Suppression Ratio (%)” value amounted to 96.9%. In the case of `N/C(=N\OCCO)[C@H](Cc1ccc(Cl)cc1)NC(=O)Nc1ccc(Cl)cc1` [Example 22-2, (+)-(S,Z)-3-(4-chlorophenyl)-2-(3-(4-chloro-phenyl)ureido)-N′-(2-hydroxy-ethoxy)propan-imidamide], the EC50 at human FPRL1 came to 0.2 nM. For `COc1ccc(C[C@H](NC(=O)Nc2ccc(Cl)cc2)/C(N)=N/C(=O)CCO)cc1` [Example 26-2, (S)-N-{2-[3-(4-chlorophenyl)-ureido]-1-imino-3-(4-methoxy-phenyl)propyl}-3-hydroxypropanamide], the EC50 on human FPRL1 is 0.15 nM. Take `N/C(=N\C(=O)CCO)[C@H](Cc1ccc(Cl)cc1)NC(=O)Nc1ccc(Cl)cc1` [Example 26-5 (B), (S)-N-{3-(4-chlorophenyl)-2-[3-(4-chloro-phenyl)ureido]-1-iminopropyl}-3-hydroxypropan-amide]: at human FPRL1, the concentration giving a half-maximal response (EC50) amounted to 0.66 nM. Moreover, the “Suppression Ratio (%)” value in test [1] (dose 3 mg/kg) was 86%. `COc1ccc(CC(NC(=O)Nc2ccc(Cl)cc2)/C(N)=N/C(=O)CO)cc1` (centres unmarked) [Example 26-11, N-{2-[3-(4-chlorophenyl)-ureido]-1-imino-3-(4-methoxy-phenyl)propyl}-2-hydroxyacetamide]: the EC50 on human FPRL1 came to 0.41 nM. On to `COc1ccc(CC(CO)NC(=O)Nc2ccc(Br)cc2)cc1` (centres unmarked) [Example 31-25, 1-(4-bromo-phenyl)-3-(1-hydroxy-3-(4-methoxyphenyl)-propan-2-yl)urea], for which the EC50 at human FPRL1 was found to be 8.45 nM. Take `COc1ccc(C[C@H](CO)NC(=O)Nc2ccc(Cl)cc2)cc1` [Example 31-29]: the EC50 on human FPRL1 was found to be 4.12 nM. Besides, the “Suppression Ratio (%)” value in test [1] (dose 10 mg/kg) amounted to 95.5%.
